{"source": "patent US6030955A", "about": "“Methods of affecting intracellular phosphorylation of tyrosine using phosphorothioate oligonucleotides, and antiangiogenic and antiproliferative uses thereof” (The Trustees of Columbia University in The City of New York …, priority 1996, dated 2000)", "system": "cell surface flk-1", "assay": "FACS analysis of blockade of anti-flk-1 MAb binding to C441 cells", "parameters": "species or system mouse/human", "conditions": "cells preincubated with 10 μg/ml heparin", "experimental": "For binding studies, C441 cells were removed with 2 mM EDTA in PBS, washed with cold Hanks balanced salt solution supplemented with 1% BSA (HBSS-BSA) and then resuspended in 100 μl of the same buffer at a concentration of 1 million cells per sample. Where indicated, cells were incubated with 2 μM oligodeoxynucleotides of 10 μg/ml heparin. After a 30 minute incubation on ice, cells were washed and reincubated for 30 minutes with 10 μg of the appropriate MAb. After washing, a 1:40 dilution of goat anti-mouse lgG conjugated to FITC (TAGO) was added for a final 30 minute incubation on ice. Cells were then analyzed on a Coulter Epics Elite Cytometer."}
{"substance": "heparin", "values": [{"measurement": "binding of anti-flk-1 MAb 73 to C441 cells", "value": "inhibition"}, {"measurement": "binding of anti-flk-1 MAb 115 to C441 cells", "value": "inhibition"}]}
